What all share (type): cell-based
Assay [1] has as its target T1, Equilibrative nucleoside transporter 2 (Mus musculus) (UniProt Q61672).
T1 sequence (whole entry): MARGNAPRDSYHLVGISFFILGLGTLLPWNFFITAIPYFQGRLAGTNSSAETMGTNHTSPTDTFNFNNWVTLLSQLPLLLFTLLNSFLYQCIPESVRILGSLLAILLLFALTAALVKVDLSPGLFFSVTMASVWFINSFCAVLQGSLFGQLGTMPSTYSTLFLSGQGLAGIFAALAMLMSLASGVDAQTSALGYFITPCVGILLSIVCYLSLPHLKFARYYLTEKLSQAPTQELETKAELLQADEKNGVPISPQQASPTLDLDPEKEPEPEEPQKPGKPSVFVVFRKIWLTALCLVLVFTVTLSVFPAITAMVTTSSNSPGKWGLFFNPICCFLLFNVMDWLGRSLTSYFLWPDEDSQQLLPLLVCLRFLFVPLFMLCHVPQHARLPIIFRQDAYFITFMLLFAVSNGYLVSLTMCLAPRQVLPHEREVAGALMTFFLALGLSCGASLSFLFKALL
The assay is described as follows: Transport through ENT2 in mouse hepatocytes by oil filtration assay in presence of sodium ions in Kreb-henseleit buffer. The following applies: Hepatocyte.

The target in assay [2] is T2, Equilibrative nucleoside transporter 2 (Rattus norvegicus) (UniProt O54699).
T2 sequence (whole entry): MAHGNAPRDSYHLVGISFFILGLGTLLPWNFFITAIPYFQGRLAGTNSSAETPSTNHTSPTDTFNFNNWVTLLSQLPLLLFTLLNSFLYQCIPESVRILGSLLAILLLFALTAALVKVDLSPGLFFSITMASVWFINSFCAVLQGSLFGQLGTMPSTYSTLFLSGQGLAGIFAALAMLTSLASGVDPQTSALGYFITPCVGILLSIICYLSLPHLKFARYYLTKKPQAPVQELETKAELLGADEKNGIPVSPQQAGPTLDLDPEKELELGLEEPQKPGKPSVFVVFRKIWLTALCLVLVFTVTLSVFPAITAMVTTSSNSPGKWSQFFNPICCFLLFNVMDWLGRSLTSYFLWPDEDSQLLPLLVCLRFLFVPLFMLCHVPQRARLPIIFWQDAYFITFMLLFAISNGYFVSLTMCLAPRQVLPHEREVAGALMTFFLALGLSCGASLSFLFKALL
The assay is described as follows: Transport through ENT2 in rat hepatocytes by oil filtration assay in presence of sodium ions in Kreb-henseleit buffer. The following applies: Hepatocyte.

Assay [3] addresses T3, Equilibrative nucleoside transporter 1 (Rattus norvegicus) (UniProt O54698).
T3 sequence (whole entry): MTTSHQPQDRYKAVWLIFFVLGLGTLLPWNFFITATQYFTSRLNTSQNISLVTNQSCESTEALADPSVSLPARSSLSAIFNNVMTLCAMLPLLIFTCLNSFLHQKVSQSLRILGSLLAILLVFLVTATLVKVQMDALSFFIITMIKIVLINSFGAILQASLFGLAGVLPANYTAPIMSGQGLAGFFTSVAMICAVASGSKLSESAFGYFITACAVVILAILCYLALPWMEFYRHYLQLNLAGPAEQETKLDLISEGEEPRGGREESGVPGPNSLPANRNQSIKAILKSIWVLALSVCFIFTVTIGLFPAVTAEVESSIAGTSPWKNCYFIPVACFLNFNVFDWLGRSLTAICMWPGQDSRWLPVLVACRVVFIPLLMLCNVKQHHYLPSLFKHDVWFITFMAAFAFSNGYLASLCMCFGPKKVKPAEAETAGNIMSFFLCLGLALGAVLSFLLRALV
The assay is described as follows: Transport through ENT1 in rat hepatocytes by oil filtration assay in presence of sodium ions in Kreb-henseleit buffer containing 100 uM NBMPR. The following applies: Hepatocyte.

The target in assay [4] is T4, Sodium/nucleoside cotransporter 2 (Rattus norvegicus) (UniProt Q62773).
T4 sequence (whole entry): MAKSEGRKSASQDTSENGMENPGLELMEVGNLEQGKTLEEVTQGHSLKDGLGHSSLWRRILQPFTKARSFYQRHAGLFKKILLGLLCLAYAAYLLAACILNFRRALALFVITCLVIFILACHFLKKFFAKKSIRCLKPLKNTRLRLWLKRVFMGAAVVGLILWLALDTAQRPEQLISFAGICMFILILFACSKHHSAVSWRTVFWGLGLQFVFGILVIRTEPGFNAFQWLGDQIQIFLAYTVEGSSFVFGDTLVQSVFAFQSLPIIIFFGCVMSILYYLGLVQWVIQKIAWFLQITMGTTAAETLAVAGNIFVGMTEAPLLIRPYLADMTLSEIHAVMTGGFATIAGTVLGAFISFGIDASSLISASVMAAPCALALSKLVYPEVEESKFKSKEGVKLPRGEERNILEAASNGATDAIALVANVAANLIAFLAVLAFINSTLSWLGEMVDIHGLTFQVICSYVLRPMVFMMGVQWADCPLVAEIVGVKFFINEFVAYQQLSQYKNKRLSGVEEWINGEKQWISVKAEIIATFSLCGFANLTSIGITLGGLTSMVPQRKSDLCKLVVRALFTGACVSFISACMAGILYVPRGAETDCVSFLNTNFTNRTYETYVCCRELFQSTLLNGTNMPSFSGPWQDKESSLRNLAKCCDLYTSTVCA
Kind of assay: Transport through CNT2 in rat hepatocytes by oil filtration assay in presence of sodium ions in Kreb-henseleit buffer containing 100 uM NBMPR and 1 mM inosine. To be noted: Hepatocyte.

For the next assay, the system named is Hepatocyte. The assay is described as follows: Transport through CNT3 in rat hepatocytes by oil filtration assay in presence of sodium ions in Kreb-henseleit buffer containing 100 uM NBMPR and 1 mM inosine.
Assay [5] concerns the target T3, Equilibrative nucleoside transporter 1 (Rattus norvegicus). The assay is described as follows: Transport through ENT1 in rat hepatocytes by oil filtration assay in presence of sodium ions in Kreb-henseleit buffer containing 100 uM NBMPR and 1 mM uridine. The following applies: Hepatocyte.
For assay [6], the target named is T1, Equilibrative nucleoside transporter 2 (Mus musculus). The assay is described as follows: Transport through ENT2 in mouse hepatocytes by oil filtration assay in presence 100 uM of transporter inhibitor NBMRP. To be noted: Hepatocyte.

Structures are written as SMILES. The source made the active and inactive calls. No cut-off for these calls is given here.

For the compound `Nc1ncnc2c1ncn2[C@@H]1O[C@H](CO)[C@@H](O)[C@H]1O`, the result (in assay [1]; in assay [4]; with Hepatocyte; in assay [5]; in assay [6]) was inactive. Also, the result in assay [2] and in assay [3] was Active.

Turning to `NC(=O)c1ncn([C@@H]2O[C@H](CO)[C@@H](O)[C@H]2O)n1`, the outcome (in assay [1]; in assay [4]; in the assay on Hepatocyte; in assay [5]; in assay [6]) was inactive. Further, the result in assay [2] and in assay [3] was Active.

For the origin of these results see ChEMBL document CHEMBL1275601, “Striking species difference in the contribution of concentrative nucleoside transporter 2 to nucleoside uptake between mouse and rat hepatocytes” (Antimicrob Agents Chemother, 2010).
